Measurements reported in patent US20220279826A1, “OFF-FLAVOR SUPPRESSING AGENT” (AJINOMOTO CO., INC., priority 2019, published 2022).

Key:
[1] = Sensory evaluation in 0.15 wt % catechin aqueous solution (Experimental Example 9); conditions: summary of Table 23
Procedure: (§1) Each compound shown in the following Table 23 was added to a 0.15 wt % catechin aqueous solution (an aqueous solution prepared by dissolving catechin (0.15 parts by weight) in ion exchange water (99.85 parts by weight)) so as to achieve the concentration (addition concentration) shown in the following Table 23 to prepare each evaluation sample.
(§2) Based on the following evaluation criteria, a panel of four experts determined by consensus the intensity of off-tastes (bitter taste, rough taste, harsh taste) derived from catechin in each evaluation sample, by comparison with a 0.15 wt % catechin aqueous solution without addition of any compound (negative control).

[2] = Sensory evaluation in 0.06 wt % acesulfame potassium aqueous solution (Experimental Example 10); conditions: summary of Table 24
Procedure: as §1, with “24” for “23”, “0.06” for “0.15”, “acesulfame potassium” for “catechin”, “acesulfame potassium (0.06” for “catechin (0.15”, “in” for “in ion exchange”, “(99.94” for “(99.85”
as §2, with “(bitter” for “(bitter taste, rough taste, harsh”, “acesulfame potassium” for “catechin”, “0.06” for “0.15”

[3] = Sensory evaluation in granular soy protein (Experimental Example 14); conditions: text summary of Table 28
Procedure: Each compound shown in the following Table 28 was added to granular soy protein (manufactured by FUJI OIL CO., LTD.) so as to achieve the concentration (addition concentration) shown in the following Table 28 to prepare each evaluation sample.
as §2, with “harsh” for “rough”, “astringent” for “harsh”, “soy protein” for “catechin”, “granular soy protein” for “a 0.15 wt % catechin aqueous solution”

[4] = Sensory evaluation in soy protein aqueous solution (Experimental Example 13); conditions: Table 27
Procedure: Each compound shown in the following Table 27 was added to an aqueous solution prepared by dissolving powdered soy protein (4 parts by weight) in water (96 parts by weight) (hereinafter at times referred to as soy protein aqueous solution) so as to achieve the concentration (addition concentration) shown in the following Table 27 to prepare each evaluation sample. Here, the powdered soy protein manufactured by FUJI OIL CO., LTD. was used.
as §2, with “harsh” for “rough”, “astringent” for “harsh”, “soy protein” for “catechin”, “soy protein” for “0.15 wt % catechin”

[5] = Sensory evaluation in granular fava bean protein (Experimental Example 16); conditions: Table 30
Procedure: Each compound shown in the following Table 30 was added to granular fava bean protein (manufactured by Schouten) so as to achieve the concentration (addition concentration) shown in the following Table 30 to prepare each evaluation sample.
as §2, with “harsh” for “rough”, “astringent” for “harsh”, “fava bean protein” for “catechin”, “granular fava bean protein” for “a 0.15 wt % catechin aqueous solution”

[6] = Sensory evaluation in stevia aqueous solution (Experimental Example 7); conditions: text summary of Table 21
Procedure: Each compound shown in the following Table 21 was added […] to an aqueous solution prepared by dissolving stevia (manufactured by PureCircle) ([…]) in ion exchange water (99.93 parts by weight) (hereinafter at times referred to as stevia aqueous solution) so as to achieve the concentration (addition concentration) shown in the following Table 21 to prepare each evaluation sample.
as §2, with “harsh” for “rough”, “metallic” for “harsh”, “stevia” for “catechin”, “stevia” for “0.15 wt % catechin”

[7] = Sensory evaluation in 0.12 wt % aspartame aqueous solution (Experimental Example 12); conditions: Table 26
Procedure: as §1, with “26” for “23”, “0.12” for “0.15”, “aspartame” for “catechin”, “aspartame (0.12” for “catechin (0.15”, “(99.88” for “(99.85”
as §2, with “three” for “four”, “harsh” for “rough”, “metallic” for “harsh”, “aspartame” for “catechin”, “0.12” for “0.15”

[8] = Sensory evaluation in 1.5 wt % disodium phosphate aqueous solution (Experimental Example 19); conditions: Table 34
Procedure: Each compound shown in the following Table 34 was added to a 1.5 wt % disodium phosphate aqueous solution (aqueous solution prepared by dissolving disodium phosphate (1.5 parts by weight) in water (98.5 parts by weight)) so as to achieve the concentration (addition concentration) shown in the following Table 34 to prepare each evaluation sample.
as §2, with “harsh” for “rough”, “astringent” for “harsh”, “disodium phosphate” for “catechin”, “1.5” for “0.15”

[9] = Sensory evaluation in pea protein aqueous solution (Experimental Example 8); conditions: text summary of Table 22
Procedure: Each compound shown in the following Table 22 was added to an aqueous solution prepared by dissolving powdered pea protein (6 parts by weight) and granulated sugar (4 parts by weight) in ion exchange water (90 parts by weight) (hereinafter at times referred to as pea protein aqueous solution) so as to achieve the concentration (addition concentration) shown in the following Table 22 to prepare each evaluation sample. Here, the powdered pea protein manufactured by Cosucra was used.
as §2, with “harsh” for “rough”, “astringent” for “harsh”, “pea protein” for “catechin”, “pea protein” for “0.15 wt % catechin”

[10] = Sensory evaluation in 0.007 wt % sucralose aqueous solution (Experimental Example 11); conditions: Table 25
Procedure: as §1, with “25” for “23”, “0.007” for “0.15”, “sucralose” for “catechin”, “sucralose (0.007” for “catechin (0.15”, “in” for “in ion exchange”, “(99.993” for “(99.85”
as §2, with “three” for “four”, “harsh” for “rough”, “metallic” for “harsh”, “sucralose” for “catechin”, “0.007” for “0.15”

CC(=O)c1ccc(C)o1 [2-acetyl-5-methylfuran]
suppressed: intensity of off-tastes (bitter taste, rough taste, harsh taste) derived from catechin [1] | intensity of off-tastes (bitter taste) derived from acesulfame potassium [2] | intensity of off-tastes (bitter taste, harsh taste, astringent taste) derived from soy protein [3] | intensity of off-tastes (bitter taste, harsh taste, astringent taste) derived from soy protein [4] | intensity of off-tastes (bitter taste, harsh taste, astringent taste) derived from fava bean protein [5] | intensity of off-tastes (bitter taste, harsh taste, metallic taste) derived from stevia [6] | intensity of off-tastes (bitter taste, harsh taste, metallic taste) derived from aspartame [7] | intensity of off-tastes (bitter taste, harsh taste, astringent taste) derived from disodium phosphate [8] | intensity of off-tastes (bitter taste, harsh taste, astringent taste) derived from pea protein [9] | intensity of off-tastes (bitter taste, harsh taste, metallic taste) derived from sucralose [10]

CC(=O)c1ccco1 [2-acetylfuran]
suppressed: intensity of off-tastes (bitter taste, rough taste, harsh taste) derived from catechin [1] | intensity of off-tastes (bitter taste) derived from acesulfame potassium [2] | intensity of off-tastes (bitter taste, harsh taste, astringent taste) derived from soy protein [3] | intensity of off-tastes (bitter taste, harsh taste, astringent taste) derived from soy protein [4] | intensity of off-tastes (bitter taste, harsh taste, astringent taste) derived from fava bean protein [5] | intensity of off-tastes (bitter taste, harsh taste, metallic taste) derived from stevia [6] | intensity of off-tastes (bitter taste, harsh taste, metallic taste) derived from aspartame [7] | intensity of off-tastes (bitter taste, harsh taste, astringent taste) derived from disodium phosphate [8] | intensity of off-tastes (bitter taste, harsh taste, astringent taste) derived from pea protein [9] | intensity of off-tastes (bitter taste, harsh taste, metallic taste) derived from sucralose [10]

CC1OCCC1=O (stereo not drawn) [2-methyltetrahydrofuran-3-one]
suppressed: intensity of off-tastes (bitter taste, rough taste, harsh taste) derived from catechin [1] | intensity of off-tastes (bitter taste) derived from acesulfame potassium [2] | intensity of off-tastes (bitter taste, harsh taste, astringent taste) derived from soy protein [3] | intensity of off-tastes (bitter taste, harsh taste, astringent taste) derived from soy protein [4] | intensity of off-tastes (bitter taste, harsh taste, astringent taste) derived from fava bean protein [5] | intensity of off-tastes (bitter taste, harsh taste, metallic taste) derived from stevia [6] | intensity of off-tastes (bitter taste, harsh taste, metallic taste) derived from aspartame [7] | intensity of off-tastes (bitter taste, harsh taste, astringent taste) derived from disodium phosphate [8] | intensity of off-tastes (bitter taste, harsh taste, astringent taste) derived from pea protein [9] | intensity of off-tastes (bitter taste, harsh taste, metallic taste) derived from sucralose [10]

CC1=C(O)C(=O)CC1 [cyclotene]
suppressed: intensity of off-tastes (bitter taste, rough taste, harsh taste) derived from catechin [1] | intensity of off-tastes (bitter taste) derived from acesulfame potassium [2] | intensity of off-tastes (bitter taste, harsh taste, astringent taste) derived from soy protein [3] | intensity of off-tastes (bitter taste, harsh taste, astringent taste) derived from soy protein [4] | intensity of off-tastes (bitter taste, harsh taste, astringent taste) derived from fava bean protein [5] | intensity of off-tastes (bitter taste, harsh taste, metallic taste) derived from stevia [6] | intensity of off-tastes (bitter taste, harsh taste, metallic taste) derived from aspartame [7] | intensity of off-tastes (bitter taste, harsh taste, astringent taste) derived from disodium phosphate [8] | intensity of off-tastes (bitter taste, harsh taste, astringent taste) derived from pea protein [9] | intensity of off-tastes (bitter taste, harsh taste, metallic taste) derived from sucralose [10]

O=Cc1ccco1 [furfural, Furfural]
suppressed: intensity of off-tastes (bitter taste, rough taste, harsh taste) derived from catechin [1] | intensity of off-tastes (bitter taste) derived from acesulfame potassium [2] | intensity of off-tastes (bitter taste, harsh taste, astringent taste) derived from soy protein [3] | intensity of off-tastes (bitter taste, harsh taste, astringent taste) derived from soy protein [4] | intensity of off-tastes (bitter taste, harsh taste, astringent taste) derived from fava bean protein [5] | intensity of off-tastes (bitter taste, harsh taste, metallic taste) derived from stevia [6] | intensity of off-tastes (bitter taste, harsh taste, metallic taste) derived from aspartame [7] | intensity of off-tastes (bitter taste, harsh taste, astringent taste) derived from disodium phosphate [8] | intensity of off-tastes (bitter taste, harsh taste, astringent taste) derived from pea protein [9] | intensity of off-tastes (bitter taste, harsh taste, metallic taste) derived from sucralose [10]

CCC(=O)O [propionic acid]
suppressed: intensity of off-tastes (bitter taste, rough taste, harsh taste) derived from catechin [1] | intensity of off-tastes (bitter taste) derived from acesulfame potassium [2] | intensity of off-tastes (bitter taste, harsh taste, astringent taste) derived from soy protein [3] | intensity of off-tastes (bitter taste, harsh taste, astringent taste) derived from soy protein [4] | intensity of off-tastes (bitter taste, harsh taste, astringent taste) derived from fava bean protein [5] | intensity of off-tastes (bitter taste, harsh taste, metallic taste) derived from stevia [6] | intensity of off-tastes (bitter taste, harsh taste, metallic taste) derived from aspartame [7] | intensity of off-tastes (bitter taste, harsh taste, astringent taste) derived from disodium phosphate [8] | intensity of off-tastes (bitter taste, harsh taste, astringent taste) derived from pea protein [9] | intensity of off-tastes (bitter taste, harsh taste, metallic taste) derived from sucralose [10]
